Source: patent US20240148710A1, “INHIBITORS OF CYTOCHROME P450 FAMILY 7 SUBFAMILY B MEMBER 1 (CYP7B1) FOR USE IN MOBILIZATION OF HEMATOPOIETIC STEM AND PROGENITOR CELLS” (priority 2022, published 2024)
Entries after “also recorded” stand apart in the source; their conditions may differ.

Legend:
colony-forming HSPCs [1] = test: Mobilization of colony-forming HSPCs into the peripheral blood of mice (CFU count of PBMCs in methylcellulose culture); type: in vivo, C57BL/6 mice
Procedure: To test whether co-administration of 27HC with G-CSF plus another clinically-used HSC mobilizing agent, AMD3100 (a CXCR4 chemokine receptor antagonist that is also known as plerixafor), further enhances HSC mobilization. Two-month-old C57BL/6 mice were treated with a single agent alone, a combination of two agents (27HC+AMD3100, or G-CSF+AMD3100), all three agents combined, or vehicle alone (2-hydroxypropyl-β-cyclodextrin for 27HC, PBS for G-CSF, and PBS for AMD3100).
(§1) Mice were treated with 27HC (10 mg/kg/day) and/or G-CSF (250 μg/kg/day) for 4 days and then treated with AMD3100 (5 mg/kg) one hour before the peripheral blood collection (FIG. 1). Peripheral blood mononuclear cells (PBMCs) were isolated by density gradient centrifugation, and were seeded in the methylcellulose culture medium. Colonies were counted after 12 days of culture.
(§2) This experiment was performed as described in Example 1, except, clotrimazole (50 mg/kg/day) was used instead of 27HC.

HSCs [2] = conditions: recently demonstrated; cited from earlier work
HSCs [3] = test: HSC proliferation and mobilization in mice treated with ERα ligands; type: in vivo; conditions: E2: male mice and non-pregnant females
Excerpt: However, the mechanism by which E2 and 27HC, two endogenous ERα ligands, differentially regulate HSCs is unknown. […] E2 levels increase during pregnancy, when extramedullary hematopoiesis (EMH) is induced to increase the production of red blood cells. In addition to increased HSC proliferation, EMH during pregnancy requires increased HSC mobilization, which the present inventors found to also depend on ERα in HSCs. […] Thus, through their differential effects on HSC behavior in vivo—E2 and 27HC act in concert to promote hematopoiesis during pregnancy.

colony-forming HSPCs [4] = conditions: AMD3100 s.c. injection; cited from earlier work
colony-forming HSPCs [5] = test: Mobilization of colony-forming HSPCs into the peripheral blood of mice (CFU count of PBMCs in methylcellulose culture); type: in vivo, C57BL/6 mice; conditions: 50 mg/kg/day oral gavage for 4 days, AMD3100 s.c. one hour before analyses, no G-CSF; trends; FIGS. 5A, 5B
colony-forming HSPCs [6] = test: Mobilization of colony-forming HSPCs into the peripheral blood of sickle cell model mice (CFU count); type: in vivo, sickle cell model mice (Townes model mice); conditions: clotrimazole 50 mg/kg/day i.p. for 4 days, AMD3100 s.c. one hour before analyses, FIGS. 4A, 4B
Procedure: as §1, §2

| Compound | Effect of treatment of mice on HSC proliferation and mobilization (HSCs [2]) | Effect of administration on HSC proliferation and mobilization (found by the present inventors) (HSCs [3]) | CFUs (including CFU-gmEM) in the peripheral blood, two-agent combination with AMD3100 versus AMD3100 single agent (colony-forming HSPCs [5]) | further results |
| --- | --- | --- | --- | --- |
| C[C@@H](CO)CCC[C@@H](C)[C@H]1CC[C@H]2[C@@H]3CC=C4C[C@@H](O)CC[C@]4(C)[C@H]3CC[C@]12C [27HC, 27-hydroxycholesterol] | induces ERα-dependent HSC mobilization but not proliferation | induces HSC mobilization (but not proliferation) | – | CFUs (including CFU-gmEM) in the peripheral blood, three-agent combination with G-CSF and AMD3100 versus G-CSF and AMD3100 (colony-forming HSPCs [1]; 27HC 10 mg/kg/day and G-CSF 250 μg/kg/day s.c. for 4 days, AMD3100 5 mg/kg one hour before collection, FIGS. 2C, 2D): significantly more CFUs, including CFU-gmEM, than the two-agent combination treatment with G-CSF and AMD3100; also recorded: mobilized more colony-forming HSPCs as compared to a single agent alone or a combination of two agents; CFUs in the peripheral blood, two-agent combination with AMD3100 versus AMD3100 single agent (colony-forming HSPCs [1]; 27HC 10 mg/kg/day s.c. for 4 days, AMD3100 5 mg/kg s.c. one hour before blood collection, FIGS. 2A, 2B): significantly more CFUs than the AMD3100 single-agent treatment; also recorded: mobilized colony-forming HSPCs significantly more than AMD3100 alone; HSC mobilization on treating mice with 27HC (colony-forming HSPCs [1]; FIG. 2): promotes HSC mobilization |
| c1cc(CN2CCCNCCNCCCNCC2)ccc1CN1CCCNCCNCCCNCC1 [AMD3100] | – | – | – | Time of peak mobilization of HSCs after AMD3100 injection (colony-forming HSPCs [4]): one hour post administration |
| C[C@]12CC[C@@H]3c4ccc(O)cc4CC[C@H]3[C@@H]1CC[C@@H]2O [E2, 17β-estradiol] | induces HSC proliferation but not mobilization | induces HSC proliferation but not mobilization | – | – |
| Clc1ccccc1C(c1ccccc1)(c1ccccc1)n1ccnc1 [clotrimazole] | – | – | synergistic effects with the single-agent AMD3100 treatment | CFUs (including CFU-gmEM) in the peripheral blood, three-agent combination with G-CSF and AMD3100 versus G-CSF and AMD3100 (colony-forming HSPCs [1]; clotrimazole 50 mg/kg/day i.p. for 4 days, G-CSF s.c. for 4 days, AMD3100 one hour before analyses, FIGS. 3C, 3D): more CFUs, including CFU-gmEM, than the two-agent combination treatment with G-CSF and AMD3100; CFUs in the peripheral blood, two-agent combination with AMD3100 versus AMD3100 single agent (colony-forming HSPCs [1]; clotrimazole 50 mg/kg/day i.p., AMD3100 s.c. one hour before analyses, FIGS. 3A, 3B): significantly more CFUs than the single-agent AMD3100 treatment; CFUs (including CFU-gmEM) in the peripheral blood, two-agent combination with AMD3100 versus AMD3100 single agent (colony-forming HSPCs [6]): significantly more CFUs, including CFU-gmEM, than the single-agent AMD3100 treatment |
| CC(C)(C(=O)c1cccnc1)c1cccnc1 [metyrapone] | – | – | generated more CFUs, including CFU-gmEM, than the single-agent AMD3100 treatment | – |
| C[C@@H](c1ncncc1F)[C@](O)(Cn1cncn1)c1ccc(F)cc1F [voriconazole] | – | – | generated more CFUs, including CFU-gmEM, than the single-agent AMD3100 treatment | – |
